Measured values from patent publication EP4692114A1, “CALCITONIN ANALOGUE, AND DERIVATIVE THEREOF AND USE THEREOF” (Hangzhou Sciwind Biosciences Co., Ltd., priority 2023, dated 2024).
*1 amine or outer side, *2 acyl side, *3 side chain or, on linkers, in order; H or OH if unused. Where a SMILES comes first, the peptide text is derived from it. The star is where a group is joined. C20 diacid = O=C(O)CCCCCCCCCCCCCCCCCCC(=O)*; γGlu = O=C(O)[C@H](CCC(=O)[*:2])N[*:1]; βAsp = O=C(O)[C@H](CC(=O)[*:2])N[*:1]

The molecules below were run against T1, human amylin receptors (Homo sapiens, UniProt O60896+P30988) (assay: Luciferase assay of amylin (amylin receptor/CRE-luc cell line)). Details: stably transfected amylin receptor/CRE-luc CHO cells (CHO-K1/Gal5/AMY3), 24 hours incubation, luciferase readout.
T1 sequence (P30988 25-474): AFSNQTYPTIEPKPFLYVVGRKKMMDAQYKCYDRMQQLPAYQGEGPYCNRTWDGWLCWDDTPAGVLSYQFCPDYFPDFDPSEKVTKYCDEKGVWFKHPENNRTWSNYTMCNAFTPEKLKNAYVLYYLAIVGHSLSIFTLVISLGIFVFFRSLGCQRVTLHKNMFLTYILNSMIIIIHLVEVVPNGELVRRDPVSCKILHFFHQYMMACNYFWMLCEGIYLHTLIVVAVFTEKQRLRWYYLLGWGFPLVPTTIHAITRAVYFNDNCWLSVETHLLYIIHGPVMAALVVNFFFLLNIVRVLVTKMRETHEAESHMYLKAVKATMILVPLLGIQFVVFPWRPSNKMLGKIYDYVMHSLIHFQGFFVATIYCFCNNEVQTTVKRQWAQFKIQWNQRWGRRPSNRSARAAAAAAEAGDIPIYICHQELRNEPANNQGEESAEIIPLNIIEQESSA
T1 sequence (O60896 24-148 partner): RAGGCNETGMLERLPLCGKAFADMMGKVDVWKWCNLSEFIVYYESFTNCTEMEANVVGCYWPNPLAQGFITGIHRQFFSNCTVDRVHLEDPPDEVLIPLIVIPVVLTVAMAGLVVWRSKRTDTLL
Assay type: cell-based
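Further: agonist potency from luminescence of cAMP response element-driven luciferase, EC50 derived from a standard curve of signal versus compound concentration.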

Row | SMILES | EC50 [nM]
1 | CC(C)C[C@H](NC(=O)[C@H](CCCNC(=N)N)NC(=O)CNC(=O)[C@H](CC(C)C)NC(=O)[C@@H](NC(=O)[C@H](C)NC(=O)[C@@H](NC(=O)[C@H](CO)NC(=O)[C@H](CC(C)C)NC(=O)[C@H](CCC(N)=O)NC(=O)[C@H](CO)NC(=O)[C@H](C)NC(=O)CC[C@H](NC(=O)CCCCCCCCCCCCCCCCCCC(=O)O)C(=O)O)[C@@H](C)O)C(C)C)C(=O)N[C@@H](CO)C(=O)N[C@@H](CCC(N)=O)C(=O)N[C@@H](CCC(=O)O)C(=O)N[C@@H](CC(C)C)C(=O)N[C@@H](Cc1c[nH]cn1)C(=O)N[C@@H](CCCNC(=N)N)C(=O)N[C@@H](CC(C)C)C(=O)N[C@@H](CCC(N)=O)C(=O)N[C@@H](CC(=O)O)C(=O)N[C@@H](Cc1ccc(O)cc1)C(=O)N1CCC[C@H]1C(=O)N[C@@H](CCCNC(=N)N)C(=O)N[C@H](C(=O)N[C@@H](CCC(N)=O)C(=O)N[C@H](C(=O)NCC(=O)N[C@@H](CO)C(=O)NCC(=O)N[C@@H](CO)C(=O)N1CCC[C@H]1C(N)=O)C(C)C)[C@@H](C)O [M15] ({C20 diacid-γGlu}-ASQLSTAVLGRLSQELHRLQDYPRTQVGSGSP-NH2) | 0.016
2 | CC(C)C[C@H](NC(=O)CC[C@H](NC(=O)CCCCCCCCCCCCCCCCCCC(=O)O)C(=O)O)C(=O)N[C@@H](CO)C(=O)N[C@@H](CCC(N)=O)C(=O)N[C@@H](CC(C)C)C(=O)N[C@@H](CO)C(=O)N[C@H](C(=O)N[C@@H](CC(C)C)C(=O)N[C@H](C(=O)N[C@@H](CC(C)C)C(=O)NCC(=O)N[C@@H](CCCNC(=N)N)C(=O)N[C@@H](CC(C)C)C(=O)N[C@@H](CO)C(=O)N[C@@H](CCC(N)=O)C(=O)N[C@@H](CCC(=O)O)C(=O)N[C@@H](CC(C)C)C(=O)N[C@@H](Cc1c[nH]cn1)C(=O)N[C@@H](CCCNC(=N)N)C(=O)N[C@@H](CC(C)C)C(=O)N[C@@H](CCC(N)=O)C(=O)N[C@@H](CC(=O)O)C(=O)N[C@@H](Cc1ccc(O)cc1)C(=O)N1CCC[C@H]1C(=O)N[C@@H](CCCNC(=N)N)C(=O)N[C@H](C(=O)N[C@@H](CC(=O)O)C(=O)N[C@H](C(=O)NCC(=O)N[C@@H](CO)C(=O)NCC(=O)N[C@@H](CO)C(=O)N1CCC[C@H]1C(N)=O)C(C)C)[C@@H](C)O)C(C)C)[C@@H](C)O [M25] ({C20 diacid-γGlu}-LSQLSTLVLGRLSQELHRLQDYPRTDVGSGSP-NH2) | 0.016
3 | CC(C)C[C@H](NC(=O)[C@H](CCCNC(=N)N)NC(=O)CNC(=O)[C@H](CC(C)C)NC(=O)[C@@H](NC(=O)[C@H](C)NC(=O)[C@@H](NC(=O)[C@H](CO)NC(=O)[C@H](CC(C)C)NC(=O)[C@H](CCC(N)=O)NC(=O)[C@H](CO)NC(=O)[C@H](C)NC(=O)[C@H](CCC(=O)O)NC(=O)CCCCCCCCCCCCCCCCCCC(=O)O)[C@@H](C)O)C(C)C)C(=O)N[C@@H](CO)C(=O)N[C@@H](CCC(=O)O)C(=O)N[C@@H](CCC(=O)O)C(=O)N[C@@H](CC(C)C)C(=O)N[C@@H](Cc1c[nH]cn1)C(=O)N[C@@H](CCCNC(=N)N)C(=O)N[C@@H](CC(C)C)C(=O)N[C@@H](CCC(N)=O)C(=O)N[C@@H](CC(=O)O)C(=O)N[C@@H](Cc1ccc(O)cc1)C(=O)N1CCC[C@H]1C(=O)N[C@@H](CCCNC(=N)N)C(=O)N[C@H](C(=O)N[C@@H](CC(=O)O)C(=O)N[C@H](C(=O)NCC(=O)N[C@@H](CO)C(=O)NCC(=O)N[C@@H](CO)C(=O)N1CCC[C@H]1C(N)=O)C(C)C)[C@@H](C)O [M52] ({C20 diacid}-EASQLSTAVLGRLSEELHRLQDYPRTDVGSGSP-NH2) | 0.017
4 | CC(C)C[C@H](NC(=O)[C@H](CCCNC(=N)N)NC(=O)CNC(=O)[C@H](CC(C)C)NC(=O)[C@@H](NC(=O)[C@H](C)NC(=O)[C@@H](NC(=O)[C@H](CO)NC(=O)[C@H](CC(C)C)NC(=O)[C@H](CCC(N)=O)NC(=O)[C@H](CO)NC(=O)[C@H](C)NC(=O)C[C@H](NC(=O)CCCCCCCCCCCCCCCCCCC(=O)O)C(=O)O)[C@@H](C)O)C(C)C)C(=O)N[C@@H](CO)C(=O)N[C@@H](CCC(=O)O)C(=O)N[C@@H](CCC(=O)O)C(=O)N[C@@H](CC(C)C)C(=O)N[C@@H](Cc1c[nH]cn1)C(=O)N[C@@H](CCCNC(=N)N)C(=O)N[C@@H](CC(C)C)C(=O)N[C@@H](CCC(N)=O)C(=O)N[C@@H](CC(=O)O)C(=O)N[C@@H](Cc1ccc(O)cc1)C(=O)N1CCC[C@H]1C(=O)N[C@@H](CCCNC(=N)N)C(=O)N[C@H](C(=O)N[C@@H](CC(=O)O)C(=O)N[C@H](C(=O)NCC(=O)N[C@@H](CO)C(=O)NCC(=O)N[C@@H](CO)C(=O)N1CCC[C@H]1C(N)=O)C(C)C)[C@@H](C)O [M53] ({C20 diacid-βAsp}-ASQLSTAVLGRLSEELHRLQDYPRTDVGSGSP-NH2) | 0.017
